Experimental data as given in patent US8969554B2, “6-acyl-1,2,4-triazine-3,5-dione derivative and herbicides” (Kumiai Chemical Industry Co., Ltd., priority 2010, dated 2015).

Legend:
Format in all cases: in vivo
Setaria viridis = test: Herbicidal activity by field foliage treatment (Test example 3); details: 1000 g effective component per hectare, day 14 after the treatment;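 further: index 0 to 10 in 10% steps of herbicidal effect with 10 meaning complete death and 0 below 10%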
Outline: (§1)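 Potted field-soil plants grown 2 weeks in a greenhouse were sprayed over the whole foliage with diluted wettable powder at 1000 L/ha, delivering 1000 g active ingredient per hectare. Herbicidal effect scored by visual criteria 14 days after treatment.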

A. retroflexus [1] = test: as above; set-up: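 index 0 to 10 in 10% steps of herbicidal effect with 10 meaning complete death and 0 below 10%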; details: 1000 g effective component per hectare, day 14 after the treatment
Outline: (§2)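 Plants were grown from seed in field soil in a greenhouse for 2 weeks, then sprayed over the whole foliage with a water-diluted wettable powder at 1000 L/ha spray volume, delivering 1000 g active ingredient per hectare. Herbicidal effect was scored on day 14 after treatment.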

Indian millet [2] = test: as above; set-up: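 index 0 to 10 in 10% steps of herbicidal effect with 10 meaning complete death and 0 below 10%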; details: 1000 g effective component per hectare, day 14 after the treatment
Outline: as §2

A. retroflexus [3] = test: Herbicidal activity by field soil treatment (Test example 2); set-up: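 index 0 to 10 in 10% steps of herbicidal effect with 10 meaning complete death and 0 below 10%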; details: 1000 g effective component per hectare, day 21 after the treatment
Outline: (§3)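 Seeds were sown in field soil in 80 cm^2 pots and covered with soil. A water-diluted wettable powder was then sprayed onto the soil surface at 1000 liters per hectare, delivering 1000 g active ingredient per hectare. Plants grew in a greenhouse, and herbicidal effect was scored against set criteria 21 days after treatment.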

Indian millet [4] = test: as above; set-up: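 index 0 to 10 in 10% steps of herbicidal effect with 10 meaning complete death and 0 below 10%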; details: 1000 g effective component per hectare, day 21 after the treatment
Outline: as §3

Echinochloa crus-galli [5] = test: as above; set-up: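 index 0 to 10 in 10% steps of herbicidal effect with 10 meaning complete death and 0 below 10%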; details: 1000 g effective component per hectare, day 21 after the treatment
Outline: as §3

Echinochloa crus-galli [6] = test: Herbicidal activity by field foliage treatment (Test example 3); set-up: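 index 0 to 10 in 10% steps of herbicidal effect with 10 meaning complete death and 0 below 10%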; details: 1000 g effective component per hectare, day 14 after the treatment
Outline: as §1

foxtail = test: Herbicidal activity by field soil treatment (Test example 2); details: 1000 g effective component per hectare, day 21 after the treatment;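 further: index 0 to 10 in 10% steps of herbicidal effect with 10 meaning complete death and 0 below 10%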
Outline: as §3

Scirpus juncoides Rocxb. = test: Herbicidal activity by paddy field soil treatment (Test Example 1); set-up: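 index 0 to 10 in 10% steps of herbicidal effect with 10 meaning complete death and 0 below 10%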; details: applied on water surface, 1000 g of effective component per hectare, day 21 after the treatment
Outline: (§4)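 Seeds were sown in puddled paddy soil in pots flooded to 3 cm water depth; the next day a water-diluted wettable powder was applied to the water surface at 1000 g active ingredient/ha. Plants were grown in a greenhouse and herbicidal effect scored by graded criteria on day 21 after treatment.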

Monochoria vaginalis = test: as above; set-up: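 index 0 to 10 in 10% steps of herbicidal effect with 10 meaning complete death and 0 below 10%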; details: 1000 g of effective component per hectare, evaluated on day 21 after the treatment, criteria of Table 72
Outline: as §4

Echinochloa oryzicola = test: as above; set-up: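 index 0 to 10 in 10% steps of herbicidal effect with 10 meaning complete death and 0 below 10%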; details: 1000 g of effective component per hectare, evaluated on day 21 after the treatment, criteria of Table 72
Outline: as §4

SMILES	herbicidal effect index, Setaria viridis (Setaria viridis)	herbicidal effect index, Amaranthus retroflexus (A. retroflexus [1])	herbicidal effect index, Abutilon theophrasti (Indian millet [2])	herbicidal effect index, Amaranthus retroflexus (A. retroflexus [3])	herbicidal effect index, Abutilon theophrasti (Indian millet [4])	herbicidal effect index, Echinochloa crus-galli (Echinochloa crus-galli [5])	herbicidal effect index, Echinochloa crus-galli (Echinochloa crus-galli [6])	herbicidal effect index, Setaria viridis (foxtail)	herbicidal effect index, S. juncoides Rocxb. (Scirpus juncoides Rocxb.)	Herbicidal effects index number, Monochoria vaginalis (Monochoria vaginalis)	Herbicidal effects index number, Echinochloa oryzicola (Echinochloa oryzicola)
Cc1ccc(C)c(-n2c(=O)c(C(=O)C3=C(O)CCCC3=O)nn(C)c2=O)c1 [I-91]	10	10	10	10	10	9	9	10	10	10	10
Cc1cccc(C)c1-n1c(=O)c(C(=O)C2=C(O)CCCC2=O)nn(C)c1=O [I-92]	10	10	10	10	10	9	10	9	10	10	10
COc1ccc(-n2c(=O)c(C(=O)C3=C(O)CCCC3=O)nn(C)c2=O)cc1OC [I-93]	9	10	10	10	10	7	9	6	10	10	8
Cc1ccc(-n2c(=O)c(C(=O)C3=C(O)CCCC3=O)nn(C)c2=O)cc1F [I-105]	7	10	10	10	9	9	10	7	10	10	10
Cc1ccc(F)c(-n2c(=O)c(C(=O)C3=C(O)CCCC3=O)nn(C)c2=O)c1 [I-109]	7	9	9	10	10	9	10	6	10	10	10
Cc1c(F)cccc1-n1c(=O)c(C(=O)C2=C(O)CCCC2=O)nn(C)c1=O [I-116]	9	8	9	10	10	10	9	9	10	10	10
Cc1cc(F)ccc1-n1c(=O)c(C(=O)C2=C(O)CCCC2=O)nn(C)c1=O [I-117]	9	8	9	10	10	10	9	7	10	10	10
Cc1ccc(F)cc1-n1c(=O)c(C(=O)C2=C(O)CCCC2=O)nn(C)c1=O [I-118]	10	10	10	10	9	10	9	9	10	10	10
Cc1cccc(-n2c(=O)c(C(=O)C3=C(O)CCCC3=O)nn(C)c2=O)c1Cl [I-127]	10	10	9	10	10	10	10	8	10	10	10
Cc1ccc(-n2c(=O)c(C(=O)C3=C(O)CCCC3=O)nn(C)c2=O)c(Cl)c1 [I-128]	10	10	10	10	10	8	9	9	10	9	8
Cc1ccc(Cl)c(-n2c(=O)c(C(=O)C3=C(O)CCCC3=O)nn(C)c2=O)c1 [I-129]	9	10	9	10	10	9	10	10	10	10	10
COc1ccc(Cl)cc1-n1c(=O)c(C(=O)C2=C(O)CCCC2=O)nn(C)c1=O [I-134]	10	10	10	10	10	10	10	10	10	10	10
Cc1cc(Cl)ccc1-n1c(=O)c(C(=O)C2=C(O)CCCC2=O)nn(C)c1=O [I-137]	10	10	10	10	10	10	10	9	10	10	10
COc1cc(-n2c(=O)c(C(=O)C3=C(O)CCCC3=O)nn(C)c2=O)cc(OC)c1OC [I-169]	9	8	9	10	9	10	9	10	10	10	10
Cn1nc(C(=O)C2=C(O)CCCC2=O)c(=O)n(-c2ccccn2)c1=O [I-179]	10	10	10	9	10	10	10	10	10	10	10
